Measurements as given in patent US9055743B2, “Alpha, beta-unsaturated imines” (BAYER INTELLECTUAL PROPERTY GMBH, priority 2010, dated 2015).

What was measured:
Assay type in all cases: in vivo
[1] = system: Ctenocephalides felis; test: Ctenocephalides felis oral test (CTECFE); settings: 100 ppm in citrated cattle blood, after two days
Outline: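 About 20 unfed adult C. felis fed through a parafilm membrane on citrated cattle blood containing compound (DMSO stock diluted to the desired concentration). Kill (%) determined after two days; 100% = all fleas dead, 0% = none dead.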

[2] = system: Culex quinquefasciatus; test: whole plant or invertebrate; settings: for knock-down activity: 100 mg/m^2, two hours after contact, exposition 30 minutes; for mortality at 100 mg/m2: Culex quinquefasciatus, read-out: activity (mortality in %)
Protocol: Culex Test (CULXFA Surface Treatment) Solvent: Acetone
To produce a suitable preparation of active compound, the active compound is dissolved in acetone (2 mg/ml). The active compound preparation is pipetted onto a glazed tile and, after drying, adult mosquitoes of the species Culex quinquefasciatus are placed onto the treated tile. The exposition time is 30 minutes.
Two hours after contact to the treated surface, the knock-down proportion of the test animals in % is determined.
24 hours after contact to the treated surface, the mortality in % is determined. Here, 100% means that all mosquitoes have been killed; 0% means that none of the mosquitoes has been killed.

[3] = system: Musca domestica; test: Musca domestica test (MUSCDO); settings: 100 ppm, after 2 days
Protocol: Musca domestica Test (MUSCDO)
Solvent: Dimethyl Sulphoxide
To produce a suitable preparation of active compound, 10 mg of active compound are mixed with 0.5 ml of dimethyl sulphoxide and the concentrate is diluted with water to the desired concentration. Vessels containing a sponge treated with the active compound preparation of the desired concentration are populated with adult Musca domestica.
After 2 days, the kill in % is determined 100% means that all flies have been killed; 0% means that none of the flies have been killed.

[4] = system: bed bugs of the species Cimex lectularius; test: whole plant or invertebrate; settings: for mortality at 100 mg/m2: Cimex lectularius, read-out: activity (mortality in %)
Protocol: Cimex Test (CIMXLE Surface Treatment)
To produce a suitable preparation of the active compound, the active compound is dissolved in acetone (2 mg/ml). The active compound preparation is pipetted onto a glazed tile and, after drying, adult bed bugs of the species Cimex lectularius are placed onto the treated tile. The exposition time is 30 minutes.
Two hours after contact to the treated surface, the knock-down proportion of the test animals in % is determined
24 hours after contact to the treated surface, the mortality in % is determined. Here, 100% means that all bed bugs have been killed; 0% means that none of the bed bugs have been killed.

[5] = system: Boophilus microplus strain Parkhurst, SP-resistant; test: Boophilus microplus test (DIP); settings: 100 ppm, after 7 days
Protocol: Boophilus microplus Test (DIP) Test Animals: Adult Fat Females of the Boophilus microplus Strain Parkhurst—SP-Resistant) Solvent: Dimethyl Sulphoxide
10 mg of active compound are dissolved in 0.5 ml of dimethyl sulphoxide. To produce a suitable formulation, the active compound solution is diluted with water to the particular desired concentration.
This active compound preparation is pipetted into tubes. 8-10 ticks are transferred into a further tube provided with holes. The tube is dipped into the active compound preparation, with all the ticks being wetted completely. After the liquid has run off, the ticks are transferred to filter discs in plastic dishes and kept in a climatized room. After 7 days, the activity is checked for deposition of fertile eggs. Eggs whose fertility is not visible from the outside are kept in glass tubes in a climatized cupboard until the larvae have hatched. An activity of 100% means that no tick has laid fertile eggs.

[6] = system: brown dog ticks (Rhipicephalus sanguineus, fully sensitive laboratory strain); test: Contact test against ticks in vitro (RHIPSA contact); settings: active compound concentration 4 g/ha
Protocol: Contact Test Against Ticks In Vitro (RHIPSA Contact)
An amount of 0.9 mg of active compound is weighed out, and 1 ml of acetone is added.
Of this acetone solution, either 250 μl are transferred directly into roll-necked test tubes or an aliquot is diluted with 4 parts of acetone 1:5. For its part, 250 μl of this dilution are pipetted into roll-necked test tubes, or the dilution is diluted further, etc., until the desired number of dilution steps is reached.
The roll-necked test tubes containing the solution of the active compound in acetone are immediately coated in a fume cupboard by 2 h of swing rotation at 30 rpm. After evaporation of the solvent, the active compound contained in the acetone gives, at the highest concentration tested, an active compound content of 500 g/ha (or […]) on the surface of the test tube.
5-10 Adult brown dog ticks (Rhipicephalus sanguineus, fully sensitive laboratory strain) are transferred into the test tubes prepared in this manner, and the test tubes are closed with a plastic roll-necked lid provided with fine holes.
The test tubes are stored vertically at room temperature and humidity for 24 or 48 h in the dark. After 24 and 48 h, the activity of the active compound applied is determined by comparison with an acetone-treated control. […]

SMILES | activity (kill in %) [1] | knock-down activity [2] | mortality at 100 mg/m2 [2] | activity (kill in %) [3] | knock-down activity ([4]; 100 mg/m^2, two hours after contact, exposition 30 minutes) | mortality at 100 mg/m2 [4] | activity (100% = no tick has laid fertile eggs) [5] | Kill rate in % after 2 days [6]
Cc1ccc(N=C2C(=CSc3ccc(F)cc3)CCc3ccccc32)cc1 [Example 1-9] | 100% | 100% | 100% | 90% | 80% | 100% | – | –
Cc1ccc(N=C2C(=CSc3ccc(F)cc3)CCc3cc(F)ccc32)cc1 [Example 1-16] | 100% | 95% | 100% | 80% | – | 90% | 100% | –
Cc1ccc(N=C2C(=CSc3ccc(C)cc3)CCc3ccccc32)cc1 [Example 1-28] | 100% | 95% | – | 80% | – | – | 100% | –
Cc1ccc(N=C2C(=CSc3ccc(F)cc3)CSc3ccccc32)cc1 [Example 1-35] | 100% | – | 100% | – | – | – | – | 100%
Cc1ccc(N=C2C(=CSc3ccc(F)cc3)C(C)c3ccccc32)cc1 (stereo not shown) [Example 1-57] | 100% | – | 100% | 85% | – | – | – | –
